# Assay results from patent publication US20240366577A1, “CONTROLLED LONG-TERM DRUG DELIVERY AND METHODS THEREOF” (THE JOHNS HOPKINS UNIVERSITY, priority 2021, published 2024).
# Key:
# [1] = crystal stability in aqueous solutions (brightfield microscopy); type: physicochemical; settings: 1-2 mg crystal, 300 μL saline, RPMI-1640 media, 1X PBS or saline with 0.1% SDS; solutions replaced every hour; after 36 hours
# Text: After crystals visibly stopped precipitating or growing, the vessel was submerged in an ultrasonic water bath for 10-30 seconds to dislodge crystals from the vessel sidewall and break them into more a uniform size distributions, either smaller fines, for example 50 μm, or between 150-200 μm, as measured by brightfield and scanning electron microscopy, shown in FIGS. 2A-2B. Resultant product was then removed from the supernatant mother solution, dried, weighed, and stored for later use. On average, yielded crystal was approximately 40% of the starting powder. Furthermore, methods exist to quantify solubilized material, typically using optics to identify changes in light transmittance, and enabled testing of crystal stability in a range of aqueous solutions. To do so, between 1-2 mg of crystal was placed in a 96-well plate with 300 μL of DMSO, saline, RPMI-1640 media, 1X phosphate buffer solution (PBS), or saline with 0.1% sodium dodecyl sulfate (SDS). […] To simulate cumulative drug release over time, all 3 mL supernatant volumes were removed and replaced with completely fresh release media at desired times of 1 hr, 4 hr, 6 hr, 8 hr, 10 hr, 1 day, 2 days, 5 days, 7 days, 10 days and 12 days, and 200 μL aliquots were measured in individual wells of a 96-well plate at 266 nm to determine solubilize sorafenib release, as shown in FIG. 2D.
# [2] = tested on: endothelial cell marker Cd31; experiment: qPCR of retrieved tumors: Cd31; type: in vivo, BALB/c mice; settings: crystals, compared to daily liquid bolus drug treatment; tumors at end of study
# Description: To determine the anti-angiogenic efficacy of each sorafenib treatment group, qPCR gene expression analysis was performed on retrieved tumors at the conclusion of the study. In particular, analysis for levels of endothelial cell marker Cd31, vascular endothelial-cadherin (VE-Cdh), smooth muscle pericyte marker alpha Smooth Muscle actin (aSMact), and stem/progenitor cell marker Cd34 were conducted, as shown in FIG. 3F.
# 1 mL of TRIzol reagent (Cat#15596018, ThermoFisher) was added to 100 mg samples of tumor tissue and broken down with a power homogenizer (Polytron/VWR). Homogenized samples were incubated at room temperature for 5 min for complete nucleoprotein dissociation, then 0.2 ml of chloroform (Sigma) was added to each sample. Samples were shaken vigorously for 15 seconds and incubated at room temperature for 3 min before centrifuging at 12,000 g for 15 min at 4° C. The uppermost supernatant layer was pipetted into a 1.7 mL Eppendorf tube, with the remaining interphase and organic layer discarded. 0.5 mL of isopropanol (Sigma) was added to each sample, and then samples were incubated for 10 min. Samples were centrifuged at 12,000 g for 10 min at 4° C. […] Depending on size of resultant pellet, pellets were resuspended in 50-100 μL, and nucleic acid concentration was measured using a NanoDrop 2000 spectrophotometer (ThermoFisher). […]
# tumor endothelial CD31 = experiment: immunofluorescent staining of tumors: CD31; type: in vivo, BALB/c mice; settings: single SC injection of 3 mg or 10 mg crystals, compared to daily bolus
# Description: To confirm the effects seen at the level of RNA, immunofluorescent staining of excised tumor samples that were in parallel fixed with paraformaldehyde and embedded in paraffin was performed. […] Co-localization of CD31 with aSMact was, as expected, not linked in crystal sorafenib-treated tumors, where CD31 reduction was more extensive than with daily, bolus sorafenib.
# Immunofluorescence imaging was used to determine anti-angiogenic drug efficacy. Tumor tissues were retrieved from mice and fixed overnight using 4% paraformaldehyde at 4° C. After fixation, retrieved tissue samples were moved to 70% ethanol. Samples were then processed for paraffin embedding, sectioning and staining. […] Next, tissues were incubated for 1 hour in an immunostaining cocktail solution consisting of NucBlue (Thermo), specific marker probes (1:200 dilution) anti-CD31 (Cat#DIA-310, HistoBioTec) and anti-alphaSmoothMuscle actin-Cy3 (Sigma) in Dako staining buffer. For CD31, a goat anti-rat alexa-fluor647 secondary antibody was also used (1:400). After staining, samples were rinsed again with 1X PBS three times prior to slides being cover slipped with Pro-long anti-fade Gold (Thermo). […] For stain quantification, images were converted into 8-bit image files, a background threshold was determined using NIH ImageJ, and then all images were processed using an NIH ImageJ macro to quantify the area of positive stain. […]
smiles,measurement,setting,value
"CNC(=O)c1cc(Oc2ccc(NC(=O)Nc3ccc(Cl)c(C(F)(F)F)c3)cc2)ccn1 [crystalline sorafenib, sorafenib]",difference in crystal size by brightfield microscopy,[1],no noticeable difference
same,endothelial cell Cd31 expression levels (qPCR),[2],more effectively reduced
same,tumor endothelial CD31 levels (immunofluorescence),tumor endothelial CD31,reduction is greater
